Source: patent publication US20240158446A1, “CYCLIC COMPOUND HAVING SELECTIVE INHIBITORY ACTION ON KRAS OVER HRAS AND NRAS” (CHUGAI SEIYAKU KABUSHIKI KAISHA, priority 2021, published 2024)

Key:
[1] = target: GDP-bound HRAS wild-type protein (Homo sapiens, UniProt P01112); test: Binding to HRAS by surface plasmon resonance (SPR), Single Cycle Kinetics; conditions: SPR, GDP-bound HRAS wild-type protein vs GDP-bound KRAS wild-type protein
[2] = target: GDP-bound NRAS wild-type protein (Homo sapiens, UniProt P01111); test: Binding to NRAS by surface plasmon resonance (SPR), Single Cycle Kinetics; conditions: SPR, GDP-bound NRAS wild-type protein vs GDP-bound KRAS wild-type protein
Chain of GDP-bound NRAS wild-type protein (P01111 whole entry): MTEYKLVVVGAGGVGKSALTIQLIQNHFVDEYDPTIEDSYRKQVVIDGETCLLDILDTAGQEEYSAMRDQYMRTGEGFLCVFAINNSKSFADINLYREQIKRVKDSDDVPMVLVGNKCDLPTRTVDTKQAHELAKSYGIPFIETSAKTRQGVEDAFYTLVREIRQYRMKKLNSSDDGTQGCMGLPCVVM

[3] = target: GDP-bound KRAS wild-type protein (Homo sapiens, UniProt P01116); test: Binding to KRAS by surface plasmon resonance (SPR), Single Cycle Kinetics; conditions: SPR, Single Cycle Kinetics, GDP-bound KRAS wild-type protein; read-out: KRAS KD
Chain of GDP-bound KRAS wild-type protein (P01116 whole entry): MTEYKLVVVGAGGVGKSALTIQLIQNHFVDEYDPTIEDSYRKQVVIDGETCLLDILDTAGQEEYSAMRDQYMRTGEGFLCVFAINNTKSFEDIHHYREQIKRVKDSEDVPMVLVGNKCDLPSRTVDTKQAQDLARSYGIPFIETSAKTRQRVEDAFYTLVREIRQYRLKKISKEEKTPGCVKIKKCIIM

Chain of GDP-bound HRAS wild-type protein (P01112 whole entry): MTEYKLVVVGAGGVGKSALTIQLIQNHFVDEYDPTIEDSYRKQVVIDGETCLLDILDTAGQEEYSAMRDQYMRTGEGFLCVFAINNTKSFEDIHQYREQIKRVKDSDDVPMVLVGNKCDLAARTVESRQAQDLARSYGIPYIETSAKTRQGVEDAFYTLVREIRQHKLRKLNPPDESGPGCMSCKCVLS

| Compound | HRAS/KRAS (ratio of KD value for HRAS to KD value for KRAS) [1] | NRAS/KRAS (ratio of KD value for NRAS to KD value for KRAS) [2] | Kd [3] [nM] |
| --- | --- | --- | --- |
| CC[C@H](C)[C@@H]1NC(=O)[C@H](C)N(C)C(=O)C[C@@H](C(=O)N(C)C)N(C)C(=O)[C@H](C2CCCC2)N(C)C(=O)C2(CCC2)NC(=O)[C@@H]2CC(F)(F)CN2C(=O)[C@H](CCc2cc(F)c(C(F)(F)F)c(F)c2)NC(=O)CN(C)C(=O)[C@H](Cc2ccc(C(F)(F)F)cc2)N2CC/C=C\C[C@@H](C2=O)N(C)C(=O)CN(C)C1=O [PP1103, (2S,8S,14S,20S,23S,27S,30S,36S,38Z)-20-cyclopentyl-8-[2-[3,5-difluoro-4-(trifluoromethyl)phenyl]ethyl]-12,12-difluoro-N,N,4,19,22,26,27,32,35-nonamethyl-30-[(1S)-1-methylpropyl]-3,6,9,15,18,21,25,28,31,34,42-undecaoxo-2-[[4-(trifluoromethyl)phenyl]methyl]spiro[1,4,7,10,16,19,22,26,29,32,35-undecazatricyclo[34.5.1.0^10,14]dotetracont-38-ene-17,1′-cyclobutane]-23-carboxamide] | B (a compound having 3 or more and less than 10 is denoted as B) | A (a compound having 10 or more and less than 20 is denoted as A) | 0.036 |
| CCO[C@@H]1C[C@H]2C(=O)NC3(CCCC3)C(=O)N(C)[C@@H](C3CCCC3)C(=O)N(C)[C@H](C(=O)N(C)C)CC(=O)N(C)[C@@H](C)C(=O)N[C@@H]([C@@H](C)CC)C(=O)N(C)CC(=O)N(C)[C@H]3C/C=C\CCN(C3=O)[C@@H](Cc3ccc(C(F)(F)F)cc3)C(=O)N(C)CC(=O)N[C@@H](CCc3cc(F)c(C(F)(F)F)c(F)c3)C(=O)N2C1 [PP1104, (2S,8S,12R,14S,20S,23S,27S,30S,36S,38Z)-20-cyclopentyl-8-[2-[3,5-difluoro-4-(trifluoromethyl)phenyl]ethyl]-12-ethoxy-N,N,4,19,22,26,27,32,35-nonamethyl-30-[(1S)-1-methylpropyl]-3,6,9,15,18,21,25,28,31,34,42-undecaoxo-2-[[4-(trifluoromethyl)phenyl]methyl]spiro[1,4,7,10,16,19,22,26,29,32,35-undecazatricyclo[34.5.1.0^10,14]dotetracont-38-ene-17,1′-cyclopentane]-23-carboxamide] | A (a compound having 10 or more and less than 20 is denoted as A) | A (a compound having 10 or more and less than 20 is denoted as A) | 0.059 |
| CC[C@H](C)[C@@H]1NC(=O)[C@H](CC)N(C)C(=O)C[C@@H](C(=O)N(C)C)N(CC)C(=O)[C@H](C2CCCC2)N(C)C(=O)C2(CCC2)NC(=O)[C@@H]2CCCN2C(=O)[C@H](CCc2cc(F)c(C(F)(F)F)c(F)c2)NC(=O)CN(C)C(=O)[C@H](Cc2ccc(C(F)(F)F)cc2)N2CC/C=C\C[C@@H](C2=O)N(C)C(=O)CN(C)C1=O [PP1106] | A (a compound having 10 or more and less than 20 is denoted as A) | A (a compound having 10 or more and less than 20 is denoted as A) | 0.81 |
| CCO[C@@H]1C[C@H]2C(=O)NC3(CCC3)C(=O)N(C)[C@@H](C3CCCC3)C(=O)N(C)[C@H](C(=O)N(C)C)CC(=O)N(C)[C@@H](CC(C)C)C(=O)N[C@@H]([C@@H](C)CC)C(=O)N(C)CC(=O)N(C)[C@H]3C/C=C\CCN(C3=O)[C@@H](Cc3ccc(C(F)(F)F)cc3)C(=O)N(C)CC(=O)N[C@@H](CCc3cc(F)c(C(F)(F)F)c(F)c3)C(=O)N2C1 [PP1107, (2S,8S,12R,14S,20S,23S,27S,30S,36S,38Z)-20-cyclopentyl-8-[2-[3,5-difluoro-4-(trifluoromethyl)phenyl]ethyl]-12-ethoxy-27-isobutyl-N,N,4,19,22,26,32,35-octamethyl-30-[(1S)-1-methylpropyl]-3,6,9,15,18,21,25,28,31,34,42-undecaoxo-2-[[4-(trifluoromethyl)phenyl]methyl]spiro[1,4,7,10,16,19,22,26,29,32,35-undecazatricyclo[34.5.1.0^10,14]dotetracont-38-ene-17,1′-cyclobutane]-23-carboxamide] | A (a compound having 10 or more and less than 20 is denoted as A) | A (a compound having 10 or more and less than 20 is denoted as A) | 0.038 |
| CCO[C@@H]1C[C@H]2C(=O)NC3(CCC3)C(=O)N(C)[C@@H](C3CCCC3)C(=O)N(C)[C@H](C(=O)N(C)C)CC(=O)N(C)[C@@H](C)C(=O)N[C@@H]([C@@H](C)CC)C(=O)N(C)CC(=O)N(C)[C@H]3C/C=C\CCN(C3=O)[C@@H](Cc3ccc(C(F)(F)F)cc3)C(=O)N(C)CC(=O)N[C@@H](CCc3cc(F)c(C(F)(F)F)c(F)c3)C(=O)N2C1 [PP1108, (2S,8S,12R,14S,20S,23S,27S,30S,36S,38Z)-20-cyclopentyl-8-[2-[3,5-difluoro-4-(trifluoromethyl)phenyl]ethyl]-12-ethoxy-N,N,4,19,22,26,27,32,35-nonamethyl-30-[(1S)-1-methylpropyl]-3,6,9,15,18,21,25,28,31,34,42-undecaoxo-2-[[4-(trifluoromethyl)phenyl]methyl]spiro[1,4,7,10,16,19,22,26,29,32,35-undecazatricyclo[34.5.1.0^10,14]dotetracont-38-ene-17,1′-cyclobutane]-23-carboxamide] | A (a compound having 10 or more and less than 20 is denoted as A) | A (a compound having 10 or more and less than 20 is denoted as A) | 0.033 |
| CCO[C@@H]1C[C@H]2C(=O)NC3(CCC3)C(=O)N(C)[C@@H](C3CCCC3)C(=O)N(C)[C@H](C(=O)N(C)C)CC(=O)N(C)[C@@H](C(C)C)C(=O)N[C@@H]([C@@H](C)CC)C(=O)N(C)CC(=O)N(C)[C@H]3C/C=C\CCN(C3=O)[C@@H](Cc3ccc(C(F)(F)F)cc3)C(=O)N(C)CC(=O)N[C@@H](CCc3cc(F)c(C(F)(F)F)c(F)c3)C(=O)N2C1 [PP1109, (2S,8S,12R,14S,20S,23S,27S,30S,36S,38Z)-20-cyclopentyl-8-[2-[3,5-difluoro-4-(trifluoromethyl)phenyl]ethyl]-12-ethoxy-27-isopropyl-N,N,4,19,22,26,32,35-octamethyl-30-[(1S)-1-methylpropyl]-3,6,9,15,18,21,25,28,31,34,42-undecaoxo-2-[[4-(trifluoromethyl)phenyl]methyl]spiro[1,4,7,10,16,19,22,26,29,32,35-undecazatricyclo[34.5.1.0^10,14]dotetracont-38-ene-17,1′-cyclobutane]-23-carboxamide] | B (a compound having 3 or more and less than 10 is denoted as B) | A (a compound having 10 or more and less than 20 is denoted as A) | 0.12 |
| CCC[C@H]1C(=O)N[C@@H]([C@@H](C)CC)C(=O)N(C)CC(=O)N(C)[C@H]2C/C=C\CCN(C2=O)[C@@H](Cc2ccc(C(F)(F)F)cc2)C(=O)N(C)CC(=O)N[C@@H](CCc2cc(F)c(C(F)(F)F)c(F)c2)C(=O)N2C[C@H](OCC)C[C@H]2C(=O)NC2(CCC2)C(=O)N(C)[C@@H](C2CCCC2)C(=O)N(C)[C@H](C(=O)N(C)C)CC(=O)N1C [PP1110, (2S,8S,12R,14S,20S,23S,27S,30S,36S,38Z)-20-cyclopentyl-8-[2-[3,5-difluoro-4-(trifluoromethyl)phenyl]ethyl]-12-ethoxy-N,N,4,19,22,26,32,35-octamethyl-30-[(1S)-1-methylpropyl]-3,6,9,15,18,21,25,28,31,34,42-undecaoxo-27-propyl-2-[[4-(trifluoromethyl)phenyl]methyl]spiro[1,4,7,10,16,19,22,26,29,32,35-undecazatricyclo[34.5.1.0^10,14]dotetracont-38-ene-17,1′-cyclobutane]-23-carboxamide] | B (a compound having 3 or more and less than 10 is denoted as B) | A (a compound having 10 or more and less than 20 is denoted as A) | 0.056 |
| CCO[C@@H]1C[C@H]2C(=O)NC3(CCC3)C(=O)N(C)[C@@H](C3CCCC3)C(=O)N(C)[C@H](C(=O)N(C)C)CC(=O)N(C)[C@@H](CC3CC3)C(=O)N[C@@H]([C@@H](C)CC)C(=O)N(C)CC(=O)N(C)[C@H]3C/C=C\CCN(C3=O)[C@@H](Cc3ccc(C(F)(F)F)cc3)C(=O)N(C)CC(=O)N[C@@H](CCc3cc(F)c(C(F)(F)F)c(F)c3)C(=O)N2C1 [PP1111, (2S,8S,12R,14S,20S,23S,27S,30S,36S,38Z)-20-cyclopentyl-27-(cyclopropylmethyl)-8-[2-[3,5-difluoro-4-(trifluoromethyl)phenyl]ethyl]-12-ethoxy-N,N,4,19,22,26,32,35-octamethyl-30-[(1S)-1-methylpropyl]-3,6,9,15,18,21,25,28,31,34,42-undecaoxo-2-[[4-(trifluoromethyl)phenyl]methyl]spiro[1,4,7,10,16,19,22,26,29,32,35-undecazatricyclo[34.5.1.0^10,14]dotetracont-38-ene-17,1′-cyclobutane]-23-carboxamide] | A (a compound having 10 or more and less than 20 is denoted as A) | A (a compound having 10 or more and less than 20 is denoted as A) | 0.045 |
